Target: T1, Bcl-2-related protein A1 (Mus musculus, UniProt Q07440)
T1 sequence (Q07440 whole entry): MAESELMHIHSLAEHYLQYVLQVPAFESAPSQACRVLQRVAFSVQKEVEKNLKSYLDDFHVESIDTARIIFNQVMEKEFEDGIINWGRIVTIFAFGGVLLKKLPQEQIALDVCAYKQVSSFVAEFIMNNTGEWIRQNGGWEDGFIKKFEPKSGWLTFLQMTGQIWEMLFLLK
Assay: Bfl-1 inhibitors blocking BH3 peptide binding, confirmation, biochemical, TR-FRET, mouse Bfl-1 (AID 621)

| SMILES | IC50 |
| --- | --- |
| c1ccc(-c2ccc(C3=Nc4ncnn4C(c4ccco4)C3)cc2)cc1 (configuration not stated) | > 100 µM |
| O=C1C(=O)N(c2ncccn2)C(c2cccc(Cl)c2)C1C(=O)c1ccco1 (configuration not stated) [2-(3-chlorophenyl)-3-(furan-2-carbonyl)-4-hydroxy-1-pyrimidin-2-yl-2H-pyrrol-5-one] | > 100 µM |
| OCCCc1nc2n(n1)C(c1cccs1)CC(c1ccccc1)=N2 (configuration not stated) [3-(5-phenyl-7-thiophen-2-yl-1,7-dihydro-[1,2,4]triazolo[1,5-a]pyrimidin-2-yl)-1-propanol] | > 100 µM |
| COCC=Nc1c(Cl)c(O)n(-c2ccc(Cl)c(Cl)c2)c1O [3-chloranyl-1-(3,4-dichlorophenyl)-4-(2-methoxyethylamino)pyrrole-2,5-dione] | 4.96 µM |
| O=C1C(=Nc2ccc(F)cc2)C(Cl)C(=O)N1c1ccc(Cl)c(Cl)c1 (configuration not stated) [3-chloranyl-1-(3,4-dichlorophenyl)-4-[(4-fluorophenyl)amino]pyrrole-2,5-dione] | 96.5 µM |
| Cc1ccc(N=C2C(=O)N(c3ccc(C)cc3)C(=O)C2Cl)cc1 (configuration not stated) [3-chloranyl-1-(4-methylphenyl)-4-[(4-methylphenyl)amino]pyrrole-2,5-dione] | 2.54 µM |
| COc1ccc(N2C(=O)C(=Nc3c(C)n(C)n(-c4ccccc4)c3=O)C(Cl)C2=O)cc1 (configuration not stated) [3-chloranyl-4-[(1,5-dimethyl-3-oxidanylidene-2-phenyl-pyrazol-4-yl)amino]-1-(4-methoxyphenyl)pyrrole-2,5-dione] | > 100 µM |
| CCCN1CCC2=C(C#N)C(=N)C(C#N)(C#N)C(c3cccc(OC)c3OC)C2C1 (configuration not stated) [6-amino-8-(2,3-dimethoxyphenyl)-2-propyl-1,3,8,8a-tetrahydroisoquinoline-5,7,7-tricarbonitrile] | > 100 µM |
| CN1CCC2=C(C#N)C(=N)C(C#N)(C#N)C(c3cccc(Cl)c3Cl)C2C1 (configuration not stated) [6-azanyl-8-[2,3-bis(chloranyl)phenyl]-2-methyl-1,3,8,8a-tetrahydroisoquinoline-5,7,7-tricarbonitrile] | > 100 µM |
| CN1CCC2=C(C#N)C(=N)C(C#N)(C#N)[C@H](c3cccc(Cl)c3)C2C1 (stereo partly drawn) [(8S)-6-amino-8-(3-chlorophenyl)-2-methyl-1,3,8,8a-tetrahydroisoquinoline-5,7,7-tricarbonitrile] | > 100 µM |
| Oc1c(Cl)c(N=Cc2ccccc2)c(O)n1-c1ccc(Cl)c(Cl)c1 [MLS-0067125.0001] | 73.7 µM |
| Cc1ccc(C2C3CN(C(C)C)CCC3=C(C#N)C(=N)C2(C#N)C#N)cc1 (configuration not stated) [SMR000034220] | > 100 µM |
